Earlier results, collected in US8227490B2, “Use of 1-hydroxy-2-pyridones for the treatment of seborrheic dermatitis” (Medicis Pharmaceutical Corporation, priority 1996, dated 2012).

Tested on: gram-positive bacteria
Settings: Kinsman et al., J. Med. Microbiol. (1983)

## CC(=O)N1CCN(c2ccc(OCC3COC(Cn4ccnc4)(c4ccc(Cl)cc4Cl)O3)cc2)CC1 (stereo not shown) [ketoconazole]
  activity in vitro against gram-positive bacteria: inactive
